≈ marks a conversion by molar mass, not a printed value. Like-named read-outs stand apart in the source and are kept apart here. Peptide text beside a SMILES is read from it.
Legend:
S. aureus ATCC 25923 = type: cell-based, Staphylococcus aureus; details: for MBC S. aureus 25923: ATCC 25923, 24 h; for MIC S. aureus 25923: broth microdilution, Mueller Hinton broth, 24 h at 37 °C, absorbance 620 nm, in duplicate, strain sensitive to vancomycin
Protocol: (§1) The minimum inhibitory concentration (MIC) was determined using a broth microdilution assay. Specifically, […] of Mueller Hinton broth and 90 μL of peptide (initial concentration 444 μg/mL) were added to a 96-well plate, with serial dilutions (200, 100, 50, 25, 12.5, and […] μg/mL). Then, 10 μL (5 × 10^5 CFU/mL) of inoculum was added to each well, and the final volume in each well was 100 μL. They were incubated for 24 h at 37 °C, and absorbance at 620 nm was measured using the ELISA reader. To determine the minimum bactericidal concentration (MBC), an aliquot was taken from each well and placed on a Mueller Hinton Agar plate. After 24 h of incubation at 37 °C, the MBC was determined. Each of these tests was performed in duplicate.

E. coli ATCC 25922 = type: cell-based, Escherichia coli
Protocol: as §1

MCF-7 cell line = details: cited from earlier work
Protocol: (§2) Finally, the cytotoxic effect of the conjugates over fibroblasts, MCF-7, and HeLa cell lines was evaluated (Figure 7).

HeLa cell line = details: cited from earlier work
Protocol: as §2

erythrocytes = type: cell-based
Protocol: First, 5.0 mL of heparinized peripheral blood was centrifuged at 1000 rpm for 7 min. The erythrocyte fraction was suspended in […] saline solution (SS) and washed twice by centrifugation at 1000 rpm for 7 min. The erythrocytes (2% hematocrit) were incubated with peptide (ranging from 6.2 to 200 µg/mL) for 2 h at 37 °C. SS was used as a negative control, while distilled water was used as a positive control. The mixtures were centrifuged, the supernatants were collected, and the absorbance was determined to be 540 nm.

C. albicans SC5314 (S) = tested on: C. albicans SC5314 (S); set-up: method as in PMID 36358216; details: sensitive to fluconazole; cited from earlier work
[1] = tested on: C. albicans 256 HUSI-PUJ (R); set-up: method as in PMID 36358216; details: resistant to fluconazole; cited from earlier work

| Compound | MBC S. aureus 25923 (S. aureus ATCC 25923) [µM] | MIC S. aureus 25923 (S. aureus ATCC 25923) [µM] | MBC E. coli 25922 (E. coli ATCC 25922; ATCC 25922, 24 h) [µM] | MIC E. coli 25922 (E. coli ATCC 25922; ATCC 25922, 24 h) [µM] | also measured |
| --- | --- | --- | --- | --- | --- |
| N=C(N)NCCC[C@H](NC(=O)[C@H](Cc1c[nH]c2ccccc12)NC(=O)[C@H](CCC(N)=O)NC(=O)[C@H](Cc1c[nH]c2ccccc12)NC(=O)[C@H](CCCNC(=N)N)NC(=O)[C@@H](N)CCCNC(=N)N)C(N)=O [RRWQWR] (H-RRWQWR-NH2) | > 203 | > 203 | 203 (≈ 200 µg/mL) | 203 (≈ 200 µg/mL) |  |
| (RRWQWR)4-K2-C2 |  |  |  |  | Cytotoxicity against MCF-7 (MCF-7 cell line): exhibited cytotoxicity; Cytotoxicity against HeLa (HeLa cell line): exhibited cytotoxicity |
| CC(C)C[C@H](NC(=O)[C@H](CC(C)C)NC(=O)[C@@H](N)CCCNC(=N)N)C(=O)N[C@@H](CCCNC(=N)N)C(N)=O [RLLR] (H-RLLR-NH2) | > 359 | > 359 | > 359 | > 359 |  |
| CTpH(F)-(AAC-(K)-RRWQWR)4 (rctt) [tetravalent (peptide)4-resorcinarene conjugate with four copies of RRWQWR on CTpH(F)] |  |  |  |  | Hemolytic effect at the MIC values (erythrocytes): Neither of the two conjugates exhibited a significant hemolytic effect; MBC E. coli 25922 (E. coli ATCC 25922; aliquot of each MIC well on Mueller Hinton Agar, 24 h at 37 °C, in duplicate): 36 µM; MIC E. coli 25922 (E. coli ATCC 25922; broth microdilution, Mueller Hinton broth, 24 h at 37 °C, absorbance 620 nm, in duplicate, strain susceptible to ciprofloxacin): 36 µM |
| RLLRRLLR |  |  |  |  | MIC C. albicans strain ATCC SC5314 (C. albicans SC5314 (S)): > 183 µM; MIC clinical isolate C. albicans 256 HUSI-PUJ [1]: > 183 µM |
